From patent publication US20230117324A1, “OXAZINE MONOACYLGLYCEROL LIPASE (MAGL) INHIBITORS” (Hoffmann-La Roche Inc., priority 2018, published 2023)
pIC50: −log10 of the molar value.

What follows are compounds tested against T1, MAGL (Homo sapiens, UniProt Q99685) (assay: MAGL inhibition, 2-AG assay (hydrolysis of 2-arachidonoylglycerol, arachidonic acid by mass spectrometry)). Settings: 2-AG assay (footnote [b]).
T1 sequence (Q99685 1-303): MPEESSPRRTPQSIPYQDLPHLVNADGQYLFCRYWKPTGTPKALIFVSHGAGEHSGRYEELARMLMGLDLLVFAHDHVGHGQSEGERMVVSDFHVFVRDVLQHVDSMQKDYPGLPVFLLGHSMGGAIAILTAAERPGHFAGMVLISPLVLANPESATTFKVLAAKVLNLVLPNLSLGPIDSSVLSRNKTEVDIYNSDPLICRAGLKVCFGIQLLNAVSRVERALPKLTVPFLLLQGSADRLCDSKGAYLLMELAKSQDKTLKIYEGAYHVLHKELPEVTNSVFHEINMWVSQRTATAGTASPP
Format: biochemical
Outline: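 Hydrolysis of 8 μM 2-arachidonoylglycerol by […] was run for 30 min at RT after a 15 min compound preincubation, in Tris/EDTA/Tween buffer. Test compounds spanned […]. The product was measured by online SPE-MS/MS (transitions 303.1→259.1 and 311.1→267.0), and activity was derived from the arachidonic acid/d8-arachidonic acid signal ratio.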

Point of comparison: O=C1CO[C@H]2CCN(C(=O)N3CC(C(O)(c4ccc(F)cc4)c4ccc(F)cc4)C3)C[C@H]2N1 [Example 54, (4aR,8aS)-6-(3-(Bis(4-fluorophenyl)(hydroxy)methyl)azetidine-1-carbonyl)hexahydro-2H-pyrido[4,3-b][1,4]oxazin-3(4H)-one], pIC50 6.09. Against it:
- CS(=O)(=O)c1cccc(C(c2ccccn2)C2CCN(C(=O)N3CC[C@@H]4OCC(=O)N[C@@H]4C3)CC2)c1 (single isomer, unassigned) [Example 190, (4aR,8aS)-6-[4-[(S or R)-(3-methylsulfonylphenyl)-(2-pyridyl)methyl]piperidine-1-carbonyl]-4,4a,5,7,8,8a-hexahydropyrido[4,3-b][1,4]oxazin-3-one] — 0.49 log units higher, 6.58
- O=C1CO[C@H]2CCN(C(=O)N3CC(c4ccc(N5CCCC5C(F)(F)F)cc4)C3)C[C@H]2N1 (single isomer, unassigned) [Example 194] — 3.91 log units higher, 10.00
- O=C1CO[C@H]2CCN(C(=O)N3CC(c4ccc(N5CCCC5C(F)(F)F)cc4)C3)C[C@H]2N1 (single isomer, unassigned) [Example 195] — 3.31 log units higher, 9.40
- O=C1CO[C@H]2CCN(C(=O)N3CC(c4ccc(N5CCC(C(F)(F)F)C5)cc4)C3)C[C@H]2N1 (single isomer, unassigned) [Example 197, (4aR,8aS)-6-(3-(4-((R or S)-3-(Trifluoromethyl)pyrrolidin-1-yl)phenyl)azetidine-1-carbonyl)hexahydro-2H-pyrido[4,3-b][1,4]oxazin-3(4H)-one] — 3.21 log units higher, 9.30
- O=C1CO[C@H]2CCN(C(=O)N3CC(c4ccc(N5CCC(C(F)(F)F)C5)cc4)C3)C[C@H]2N1 (single isomer, unassigned) [Example 198, (4aR,8aS)-6-(3-(4-((S or R)-3-(Trifluoromethyl)pyrrolidin-1-yl)phenyl)azetidine-1-carbonyl)hexahydro-2H-pyrido[4,3-b][1,4]oxazin-3(4H)-one] — 2.91 log units higher, 9.00
- O=C1CO[C@H]2CCN(C(=O)N3CCC(c4cccc(OC(F)(F)F)c4)C3)C[C@H]2N1 (single isomer, unassigned) [Example 221, (4aR,8aS)-6-[3-(S or R)-[3-(Trifluoromethoxy)phenyl]pyrrolidine-1-carbonyl]-4,4a,5,7,8,8a-hexahydropyrido[4,3-b][1,4]oxazin-3-one] — 0.66 log units higher, 6.75
- O=C1CO[C@H]2CCN(C(=O)N3CCC(c4cccc(OC(F)(F)F)c4)C3)C[C@H]2N1 (single isomer, unassigned) [Example 222, (4aR,8aS)-6-[3-(R or S)-[3-(Trifluoromethoxy)phenyl]pyrrolidine-1-carbonyl]-4,4a,5,7,8,8a-hexahydropyrido[4,3-b][1,4]oxazin-3-one] — 0.85 log units higher, 6.94
- O=C1CO[C@H]2CCN(C(=O)N3CCC(c4cccc(Br)c4)C3)C[C@H]2N1 (single isomer, unassigned) [Example 228, (4aR,8aS)-6-[(3S or R)-3-(3-Bromophenyl)pyrrolidine-1-carbonyl]-4,4a,5,7,8,8a-hexahydropyrido[4,3-b][1,4]oxazin-3-one] — 0.70 log units higher, 6.79
- O=C1CO[C@H]2CCN(C(=O)N3CCC(c4cccc(Br)c4)C3)C[C@H]2N1 (single isomer, unassigned) [Example 229, (4aR,8aS)-6-[(3R or S)-3-(3-Bromophenyl)pyrrolidine-1-carbonyl]-4,4a,5,7,8,8a-hexahydropyrido[4,3-b][1,4]oxazin-3-one] — 0.55 log units higher, 6.64
- O=C1CO[C@H]2CCN(C(=O)N3CCC(c4cc(Cl)cc(OCC(F)(F)F)c4)C3)C[C@H]2N1 (single isomer, unassigned) [Example 238, (4aR,8aS)-6-((R or S)-3-(3-Chloro-5-(2,2,2-trifluoroethoxy)phenyl)pyrrolidine-1-carbonyl)hexahydro-2H-pyrido[4,3-b][1,4]oxazin-3(4H)-one] — 0.72 log units higher, 6.81
- O=C1CO[C@H]2CCN(C(=O)N3CCC(c4cc(Cl)cc(OCC(F)(F)F)c4)C3)C[C@H]2N1 (single isomer, unassigned) [Example 239, (4aR,8aS)-6-((S or R)-3-(3-Chloro-5-(2,2,2-trifluoroethoxy)phenyl)pyrrolidine-1-carbonyl)hexahydro-2H-pyrido[4,3-b][1,4]oxazin-3(4H)-one] — 1.32 log units higher, 7.41
- CC(Oc1ccc(C2CN(C(=O)N3CC[C@@H]4OCC(=O)N[C@@H]4C3)C2)cc1)C(F)(F)F (single isomer, unassigned) [Example 246, (4aR,8aS)-6-[3-(R or S)-[4-(2,2,2-Trifluoro-1-methyl-ethoxy)phenyl]azetidine-1-carbonyl]-4,4a,5,7,8,8a-hexahydropyrido[4,3-b][1,4]oxazin-3-one] — 2.91 log units higher, 9.00
- CC(Oc1ccc(C2CN(C(=O)N3CC[C@@H]4OCC(=O)N[C@@H]4C3)C2)cc1)C(F)(F)F (single isomer, unassigned) [Example 248, (4aR,8aS)-6-[3-(S or R)-[4-(2,2,2-Trifluoro-1-methyl-ethoxy)phenyl]azetidine-1-carbonyl]-4,4a,5,7,8,8a-hexahydropyrido[4,3-b][1,4]oxazin-3-one] — 2.91 log units higher, 9.00
- O=C1CO[C@H]2CCN(C(=O)N3CC(c4ccc(N5CCC(C(F)(F)F)C5)cn4)C3)C[C@H]2N1 (single isomer, unassigned) [Example 271, (4aR,8aS)-6-(3-(5-((R or S)-3-(Trifluoromethyl)pyrrolidin-1-yl)pyridin-2-yl)azetidine-1-carbonyl)hexahydro-2H-pyrido[4,3-b][1,4]oxazin-3(4H)-one] — 1.57 log units higher, 7.66
- O=C1CO[C@H]2CCN(C(=O)N3CC(c4ccc(N5CCC(C(F)(F)F)C5)cn4)C3)C[C@H]2N1 (single isomer, unassigned) [Example 272, (4aR,8aS)-6-(3-(5-((S or R)-3-(Trifluoromethyl)pyrrolidin-1-yl)pyridin-2-yl)azetidine-1-carbonyl)hexahydro-2H-pyrido[4,3-b][1,4]oxazin-3(4H)-one] — 1.68 log units higher, 7.77
- O=C1CO[C@H]2CCN(C(=O)N3CC(c4ccc(N5CCC(C(F)(F)F)C5)nc4)C3)C[C@H]2N1 (single isomer, unassigned) [Example 274, (4aR,8aS)-6-[3-[6-[3-(R or S)-(Trifluoromethyl)pyrrolidin-1-yl]-3-pyridyl]azetidine-1-carbonyl]-4,4a,5,7,8,8a-hexahydropyrido[4,3-b][1,4]oxazin-3-one] — 2.61 log units higher, 8.70
- CC(C)(C)[Si](C)(C)OCCn1cc(C2CCN(C(=O)N3CC[C@@H]4OCC(=O)NC4C3)CC2)c2cc(Cl)ccc21 (stereo in doubt) [Example 268, (4aS,8aS)-6-[4-[1-[2-[tert-Butyl(dimethyl)silyl]oxyethyl]-5-chloro-indol-3-yl]piperidine-1-carbonyl]-4,4a,5,7,8,8a-hexahydropyrido[4,3-b][1,4]oxazin-3-one] — within 0.2 log units, 6.17
- N#CC(c1ccc(F)cc1)C1CCN(C(=O)N2CC[C@@H]3OCC(=O)N[C@@H]3C2)CC1 (stereo partly drawn) [Example 48, 2-(4-Fluorophenyl)-2-(1-((4aR,8aS)-3-oxooctahydro-2H-pyrido[4,3-b][1,4]oxazine-6-carbonyl)piperidin-4-yl)acetonitrile] — 0.35 log units higher, 6.44
- O=C1CO[C@H]2CCN(C(=O)N3CCN(C(c4ccccc4)C(F)(F)F)CC3)C[C@H]2N1 (stereo partly drawn) [Example 49, (4aR,8aS)-6-(4-(2,2,2-Trifluoro-1-phenylethyl)piperazine-1-carbonyl)hexahydro-2H-pyrido[4,3-b][1,4]oxazin-3(4H)-one] — within 0.2 log units, 5.96
- O=C1CO[C@H]2CCN(C(=O)N3CCC(C(OCC(F)(F)F)c4ccc(F)cc4)CC3)C[C@H]2N1 (stereo partly drawn) [Example 50, (4aR,8aS)-6-(4-((4-Fluorophenyl)(2,2,2-trifluoroethoxy)methyl)piperidine-1-carbonyl)hexahydro-2H-pyrido[4,3-b][1,4]oxazin-3(4H)-one] — 1.96 log units higher, 8.05
- Cc1noc(CC(c2ccc(F)cc2)C2CCN(C(=O)N3CC[C@@H]4OCC(=O)N[C@@H]4C3)CC2)n1 (stereo partly drawn) [Example 51, (4aR,8aS)-6-(4-(1-(4-Fluorophenyl)-2-(3-methyl-1,2,4-oxadiazol-5-yl)ethyl)piperidine-1-carbonyl)hexahydro-2H-pyrido[4,3-b][1,4]oxazin-3(4H)-one] — 1.11 log units higher, 7.20
- O=C1CO[C@H]2CCN(C(=O)N3CCC(C4(c5ccc(C(F)(F)F)cc5)CC4)CC3)C[C@H]2N1 [Example 52, (4aR,8aS)-6-(4-(1-(4-(Trifluoromethyl)phenyl)cyclopropyl)piperidine-1-carbonyl)hexahydro-2H-pyrido[4,3-b][1,4]oxazin-3(4H)-one] — 1.59 log units higher, 7.68
- O=C1CO[C@H]2CCN(C(=O)N3CCN(C(c4ccc(F)cc4F)C(F)(F)F)CC3)C[C@H]2N1 (stereo partly drawn) [Example 53, (4aR,8aS)-6-(4-(1-(2,4-Difluorophenyl)-2,2,2-trifluoroethyl)piperazine-1-carbonyl)hexahydro-2H-pyrido[4,3-b][1,4]oxazin-3(4H)-one] — 0.29 log units higher, 6.38
- O=C1CO[C@H]2CCN(C(=O)N3CC(C(F)(c4ccc(F)cc4)c4ccc(F)cc4)C3)C[C@H]2N1 [Example 55, (4aR,8aS)-6-(3-(Fluorobis(4-fluorophenyl)methyl)azetidine-1-carbonyl)hexahydro-2H-pyrido[4,3-b][1,4]oxazin-3(4H)-one] — 0.29 log units higher, 6.38
- O=C1CO[C@H]2CCN(C(=O)N3CCC(C(COCC(F)(F)F)c4ccc(F)cc4)CC3)C[C@H]2N1 (stereo partly drawn) [Example 56, (4aR,8aS)-6-(4-(1-(4-Fluorophenyl)-2-(2,2,2-trifluoroethoxy)ethyl)piperidine-1-carbonyl)hexahydro-2H-pyrido[4,3-b][1,4]oxazin-3(4H)-one] — 1.59 log units higher, 7.68
